Measured values reported in US20180185324A1, “NOVEL CANNABINOID COMBINATION THERAPIES FOR MULTIPLE MYELOMA (MM)” (ONE WORLD CANNABIS LTD, priority 2015, published 2018).
Where two headings read alike, the source gives them in different places.

System: RPMI8226 multiple myeloma (MM) human cell lines
Assay: Cytotoxic effect of CBD, THC and combinations on RPMI8226 cells
Assay type: cell-based
Settings: for IC50: Homo sapiens; for survival of MM cells (in words): concentration dependent manner, FIG. 2; for survival of RPMIS MM cells: concentration of about 20 μM and higher
Experimental: This example examines the cytotoxic effect of CBD alone, THC alone and combinations of both compounds. The cytotoxic effect of CBD, THC and their combinations in different ratios such as CBD: THC 1:1; CBD: THC 5:1 and CBD: THC 1:5 were evaluated on RPMI8226 multiple myeloma (MM) human cell lines. Reference is now made to FIG. 2 which presents a graph of RPMIS MM cell line survival (%) vs. concentration (μM).

C=C(C)[C@@H]1CCC(C)=C[C@H]1c1c(O)cc(CCCCC)cc1O [CBD, cannabidiol]
IC50 (RPMI-8226, RPMI8226 (RPMIS) MM cells, read-out: dose that caused 50% of MM cell death): 16 µM
survival of MM cells (in words): decreased the survival
survival of RPMIS MM cells: about 50%

CCCCCc1cc(O)c2c(c1)OC(C)(C)[C@@H]1CCC(C)=C[C@@H]21 [THC, Tetrahydrocannabinol]
IC50 (RPMI-8226, read-out: dose that caused 50% of MM cell death): 22 µM
survival of MM cells (in words): decreased the survival
survival of RPMIS MM cells: about 50%
